Common to all, as to format: cell-based, human
One experiment has as its system RPMI-8226. Briefly: CellTiter cell proliferation assay, RPMI-8226 (multiple myeloma, irresponsive control). The conditions noted are these: RPMI-8226 multiple myeloma control cell line. An excerpt:
(§1) ATL cell lines Hut102, ED40515, S1T, OATL4, and OATL9, HTLV-1 transformed cell lines MT-2, MT-4, and C8166, PTCL cell line Hut78, other T-cell Jurkat, MOLT4, HL60, and monocyte cell line K562 are laboratory stocks (Dr. Hidekatsu Iha, Oita University, and Prof. Kazuhiro Morishita, The University of Miyazaki). ATL cell lines ST1, KOB, KK1, and SO4 are gift from Dr. Hiroo Hasegawa, Nagasaki University). NCI-H929 and RPMI-8226 were purchased from American Type Culture Collection (ATCC: Manassas, Va.). Each cell line was maintained with RPMI-1640 culture media supplemented with 15% fetal bovine serum (FBS: Equitech-Bio Inc., Kerrville, Tex.), penicillin G (50 U/ml), and streptomycin (50 μg/ml). Antibiotics were purchased from Sigma-Aldrich Co. LLC. (St. Louis, Mo.).
(§2) Cells were plated in 24-well plates at 5×10^4 cells per 1.5 mL RPMI1640 and kept in 5% CO2 incubator for 24 hours (cell number should reach 1×10^5). […] After 10 minutes incubation at room temperature, the reaction mixture in 96-well plates was read by Glomax luminometer (Promega). Average values and standard deviation were obtained from four independent experiments.
(§3) Relative CellTiter values compared to untreated control cells at day 0 were plotted. […] In addition, OATL4 and KOB display 30% more reductions (see Table 2).

A further experiment relates to NCI-H929. Briefly: CellTiter cell proliferation assay, NCI-H929 (multiple myeloma, responsive control). To be noted: NCI-H929 multiple myeloma control cell line.
Text: as §1, §2, §3

A further experiment concerns Hut102. Briefly: CellTiter cell proliferation assay, Hut102 (ATL cell line).
Text: as §1, §2, §3
(§4) The CellTiter Assay was performed the same way as in Section 6.3, Example 3. Standard deviation was calculated from four experiments.

The subject of a further experiment is OATL4. Briefly: CellTiter cell proliferation assay, OATL4 (ATL cell line). To be noted: see Table 2.
Text: as §1, §2, §3

The next experiment deals with KOB. Briefly: CellTiter cell proliferation assay, KOB (ATL cell line). The conditions noted are these: see Table 2.
Text: as §1, §2, §3

For another experiment, the system named is MT-4. Nature of the experiment: CellTiter cell proliferation assay, MT-4 (HTLV-1 transformed).
Text: as §1, §2, §3

The next experiment relates to HuT78. Briefly: CellTiter cell proliferation assay, HuT78 (HTLV-1 negative T-cell line). To be noted: 10 μM lenalidomide for three days.
Text: as §1, §2
Relative CellTiter values compared to untreated control cells at day 0 were plotted. […]
as §4

Another experiment relates to MOLT4. Nature of the experiment: CellTiter cell proliferation assay, MOLT4. The conditions noted are these: MOLT-4; see Table 2.
Text: as §1, §2, §3

Experiment [1] deals with cell line 5 (ATL cell line). Nature of the experiment: Lenalidomide sensitivity of cell types of Example 2, cell line 5. An excerpt:
(§5) Twenty-three types of cells from, e.g., ATL cell lines, lymphoma cell lines, leukemia cell lines, healthy peripheral blood mononuclear cells (PBMCs), and human T-lymphotropic virus 1 (HTLV-1) carrier's PBMCs are employed in this example.

Experiment [2] concerns cell line 6 (ATL cell line). Briefly: Lenalidomide sensitivity of cell types of Example 2, cell line 6.
Text: as §5

The subject of experiment [3] is cell line 12 (ATL cell line). Nature of the experiment: Lenalidomide sensitivity of cell types of Example 2, cell line 12.
Text: as §5

Experiment [4] concerns cell lines 1-4, 7, 10-11, and 13-23. Briefly: Lenalidomide sensitivity of cell types of Example 2, other cell lines.
Text: as §5

The mark [5] stands for this setting: Homo sapiens, HuT-102, read-out: remaining activities (cell proliferation activity).

Regarding `Nc1cccc2c1CN(C1CCC(=O)NC1=O)C2=O` (centres unmarked) [lenalidomide, 1-oxo-2-(2,6-dioxopiperidin-3-yl)-4-aminoisoindoline], the “response against lenalidomide treatment (FIG. 3)” value is recorded as “insensitive” in the experiment with RPMI-8226 and “sensitive” with NCI-H929. In addition, in the experiment with Hut102 (setting [5]), the activity at 0.1 µM stood at 64.2%. In the experiment on Hut102 (setting [5]), the activity at 1 µM came out at 68.3%. Moreover, the activity at 10 µM with Hut102 (setting [5]) worked out at 46%. Further, in the experiment on Hut102 (setting [5]), the activity at 100 µM was 53%. The “time-dependent cell growth (remaining growth activities, FIG. 4)” value in the experiment on Hut102 (HuT102, 10 μM lenalidomide for three days) was “significant decrease in cell growth”; in the experiment on HuT78 it was “almost unchanged”. The “reductions of cell proliferation activity” value in the experiment on OATL4 and with KOB was not below 30% each time. Further, the growth inhibition in the experiment on KOB and in the experiment with MOLT4 was 30% in each case. Also, the sensitivity to lenalidomide result with MT-4 is “moderate sensitive”; in [1] it was “highly-sensitive”; in experiment [2], “weak/moderate-sensitive”; in experiment [3], “weak/moderate-sensitive”; in [4] it was “intense tolerance”.

Source of the values: US10338077B2, “Methods for determining drug efficacy for treatment of cancer ration of cereblon associated proteins” (Celgene Corporation, priority 2015, dated 2019).
